Experimental data as given in ChEMBL document CHEMBL1671734, “An ertapenem-resistant extended-spectrum-beta-lactamase-producing Klebsiella pneumoniae clone carries a novel OmpK36 porin variant” (2010).
≈ marks a conversion by molar mass, not a printed value.

Tests used:
Format in all cases: functional
Klebsiella pneumoniae [1] = assay: Antimicrobial activity against ESBL-positive Klebsiella pneumoniae 71697 harboring porin OmpK36V mutant gene by Etest
Klebsiella pneumoniae [2] = assay: Antimicrobial activity against ESBL-positive Klebsiella pneumoniae 69928 harboring porin OmpK36V mutant gene by Etest
Klebsiella pneumoniae [3] = assay: Antimicrobial activity against ESBL-positive Klebsiella pneumoniae 69036 harboring porin OmpK36V mutant gene by Etest
Klebsiella pneumoniae [4] = assay: Antimicrobial activity against ESBL-positive Klebsiella pneumoniae 50748 harboring porin OmpK36 gene by Etest
Klebsiella pneumoniae [5] = assay: Antimicrobial activity against ESBL-positive Klebsiella pneumoniae 18260 harboring pSHA2-encoded porin OmpK36 gene by Etest
Klebsiella pneumoniae [6] = assay: Antimicrobial activity against ESBL-positive Klebsiella pneumoniae 17829 harboring pSHA2-encoded porin OmpK36 gene by Etest
Klebsiella pneumoniae [7] = assay: Antimicrobial activity against ESBL-positive Klebsiella pneumoniae 19039 harboring porin OmpK36V mutant gene by Etest
Klebsiella pneumoniae [8] = assay: Antimicrobial activity against ESBL-positive Klebsiella pneumoniae 18918 harboring porin OmpK36V mutant gene by Etest
Klebsiella pneumoniae [9] = assay: Antimicrobial activity against ESBL-positive Klebsiella pneumoniae 18567 harboring porin OmpK36V mutant gene by Etest
Klebsiella pneumoniae [10] = assay: Antimicrobial activity against ESBL-positive Klebsiella pneumoniae 18260 by Etest
Klebsiella pneumoniae [11] = assay: Antimicrobial activity against ESBL-positive Klebsiella pneumoniae 17834 harboring porin OmpK36V mutant gene by Etest
Klebsiella pneumoniae [12] = assay: Antimicrobial activity against ESBL-positive Klebsiella pneumoniae 17830 harboring porin OmpK36V mutant gene by Etest
Klebsiella pneumoniae [13] = assay: Antimicrobial activity against ESBL-positive Klebsiella pneumoniae 17829 by Etest
Klebsiella pneumoniae [14] = assay: Antimicrobial activity against ESBL-positive Klebsiella pneumoniae 17049 harboring porin OmpK36V mutant gene by Etest
Klebsiella pneumoniae [15] = assay: Antimicrobial activity against ESBL-positive Klebsiella pneumoniae 11932 harboring porin OmpK36 gene by Etest
Klebsiella pneumoniae [16] = assay: Antimicrobial activity against ESBL-positive Klebsiella pneumoniae 16830 harboring porin OmpK36 gene by Etest
Klebsiella pneumoniae [17] = assay: Antimicrobial activity against ESBL-positive Klebsiella pneumoniae 25008 by Etest
Klebsiella pneumoniae [18] = assay: Antimicrobial activity against ESBL-positive Klebsiella pneumoniae 26077 harboring porin OmpK36V mutant gene by Etest
Klebsiella pneumoniae [19] = assay: Antimicrobial activity against ESBL-positive Klebsiella pneumoniae 287942 harboring porin OmpK36 gene by Etest
Klebsiella pneumoniae [20] = assay: Antimicrobial activity against ESBL-positive Klebsiella pneumoniae 29459 harboring porin OmpK36 gene by Etest
Klebsiella pneumoniae [21] = assay: Antimicrobial activity against ESBL-positive Klebsiella pneumoniae 29830 harboring porin OmpK36V mutant gene by Etest
Klebsiella pneumoniae [22] = assay: Antimicrobial activity against ESBL-negative Klebsiella pneumoniae 299332 harboring porin OmpK36 gene by Etest
Klebsiella pneumoniae [23] = assay: Antimicrobial activity against ESBL-negative Klebsiella pneumoniae 30018 harboring porin OmpK35 gene by Etest
Klebsiella pneumoniae [24] = assay: Antimicrobial activity against ESBL-positive Klebsiella pneumoniae 6267 harboring porin OmpK36V mutant gene by Etest
Klebsiella pneumoniae [25] = assay: Antimicrobial activity against ESBL-positive Klebsiella pneumoniae 16855 harboring porin OmpK36 and OmpK35 genes by Etest
Klebsiella pneumoniae [26] = assay: Antimicrobial activity against ESBL-positive Klebsiella pneumoniae 31750 harboring porin OmpK36 gene by Etest

Compound	MIC (Klebsiella pneumoniae [1]) [µg/mL]	MIC (Klebsiella pneumoniae [2]) [µg/mL]	MIC (Klebsiella pneumoniae [3]) [µg/mL]	MIC (Klebsiella pneumoniae [4]) [µg/mL]	MIC (Klebsiella pneumoniae [7]) [µg/mL]	MIC (Klebsiella pneumoniae [8]) [µg/mL]	MIC (Klebsiella pneumoniae [9]) [µg/mL]	MIC (Klebsiella pneumoniae [10]) [µg/mL]	MIC (Klebsiella pneumoniae [11]) [µg/mL]	MIC (Klebsiella pneumoniae [12]) [µg/mL]	MIC (Klebsiella pneumoniae [13]) [µg/mL]	MIC (Klebsiella pneumoniae [14]) [µg/mL]	MIC (Klebsiella pneumoniae [15]) [µg/mL]	MIC (Klebsiella pneumoniae [16]) [µg/mL]	MIC (Klebsiella pneumoniae [17]) [µg/mL]	MIC (Klebsiella pneumoniae [18]) [µg/mL]	MIC (Klebsiella pneumoniae [19]) [µg/mL]	MIC (Klebsiella pneumoniae [20]) [µg/mL]	MIC (Klebsiella pneumoniae [21]) [µg/mL]	MIC (Klebsiella pneumoniae [23]) [µg/mL]	other results
C[C@H]1[C@H](NC(=O)/C(=N\OC(C)(C)C(=O)O)c2csc(N)n2)C(=O)N1S(=O)(=O)O [AZTREONAM]	> 256	> 256	> 256	> 256	> 256	> 256	> 256	> 256	> 256	> 256	> 256	> 256	> 256	> 256	> 256	> 256	> 256	> 256	> 256	0.064 (≈ 0.147 µM)	MIC (Klebsiella pneumoniae [5]): > 256 µg/mL; MIC (Klebsiella pneumoniae [6]): > 256 µg/mL; MIC (Klebsiella pneumoniae [22]): 0.25 µg/mL (≈ 0.574 µM)
CO/N=C(\C(=O)N[C@@H]1C(=O)N2C(C(=O)[O-])=C(C[N+]3(C)CCCC3)CS[C@H]12)c1csc(N)n1 [CEFEPIME]	> 256	> 256	> 256	48 (≈ 99.9 µM)	> 256	> 256	> 256	> 256	> 256	> 256	> 256	> 256	48 (≈ 99.9 µM)	–	> 256	> 256	–	96 (≈ 200 µM)	> 256	0.047 (≈ 0.0978 µM)	MIC (Klebsiella pneumoniae [24]): > 256 µg/mL
CO/N=C(\C(=O)N[C@@H]1C(=O)N2C(C(=O)O)=C(COC(C)=O)CS[C@H]12)c1csc(N)n1 [CEFOTAXIME]	> 32	> 32	> 32	> 32	> 32	> 32	> 32	> 32	> 32	> 32	> 32	> 32	> 32	> 32	> 32	> 32	> 32	> 32	> 32	0.094 (≈ 0.206 µM)	MIC (Klebsiella pneumoniae [25]): > 32 µg/mL; MIC (Klebsiella pneumoniae [24]): > 32 µg/mL; MIC (Klebsiella pneumoniae [22]): 0.125 µg/mL (≈ 0.274 µM); MIC (Klebsiella pneumoniae [26]): > 32 µg/mL
CO[C@@]1(NC(=O)Cc2cccs2)C(=O)N2C(C(=O)O)=C(COC(N)=O)CS[C@@H]21 [CEFOXITIN]	128 (≈ 299 µM)	48 (≈ 112 µM)	128 (≈ 299 µM)	6 (≈ 14 µM)	> 256	> 256	> 256	> 256	96 (≈ 225 µM)	96 (≈ 225 µM)	> 256	> 256	6 (≈ 14 µM)	3 (≈ 7.02 µM)	64 (≈ 150 µM)	128 (≈ 299 µM)	4 (≈ 9.36 µM)	6 (≈ 14 µM)	128 (≈ 299 µM)	3 (≈ 7.02 µM)	MIC (Klebsiella pneumoniae [5]): 256 µg/mL (≈ 599 µM); MIC (Klebsiella pneumoniae [6]): 256 µg/mL (≈ 599 µM); MIC (Klebsiella pneumoniae [25]): 24 µg/mL (≈ 56.1 µM); MIC (Klebsiella pneumoniae [24]): 32 µg/mL (≈ 74.9 µM); MIC (Klebsiella pneumoniae [22]): 4 µg/mL (≈ 9.36 µM); MIC (Klebsiella pneumoniae [26]): 3 µg/mL (≈ 7.02 µM)
CC(C)(O/N=C(\C(=O)N[C@@H]1C(=O)N2C(C(=O)[O-])=C(C[n+]3ccccc3)CS[C@H]12)c1csc(N)n1)C(=O)O [CEFTAZIDIME]	> 32	> 32	> 32	> 32	> 32	> 32	> 32	> 32	> 32	> 32	> 32	> 32	> 32	> 32	> 32	> 32	> 32	> 32	> 32	< 0.5	MIC (Klebsiella pneumoniae [5]): > 32 µg/mL; MIC (Klebsiella pneumoniae [6]): > 32 µg/mL; MIC (Klebsiella pneumoniae [25]): > 32 µg/mL; MIC (Klebsiella pneumoniae [24]): > 32 µg/mL; MIC (Klebsiella pneumoniae [22]): < 0.5 µg/mL; MIC (Klebsiella pneumoniae [26]): > 32 µg/mL
C[C@@H](O)[C@H]1C(=O)N2C(C(=O)O)=C(SCCNC=N)C[C@H]12 [IMIPENEM ANHYDROUS]	0.19 (≈ 0.635 µM)	0.5 (≈ 1.67 µM)	0.19 (≈ 0.635 µM)	0.25 (≈ 0.835 µM)	0.19 (≈ 0.635 µM)	0.19 (≈ 0.635 µM)	0.19 (≈ 0.635 µM)	12 (≈ 40.1 µM)	0.19 (≈ 0.635 µM)	0.19 (≈ 0.635 µM)	12 (≈ 40.1 µM)	0.25 (≈ 0.835 µM)	0.19 (≈ 0.635 µM)	0.125 (≈ 0.418 µM)	1 (≈ 3.34 µM)	0.19 (≈ 0.635 µM)	0.19 (≈ 0.635 µM)	0.19 (≈ 0.635 µM)	0.19 (≈ 0.635 µM)	0.25 (≈ 0.835 µM)	MIC (Klebsiella pneumoniae [5]): 1 µg/mL (≈ 3.34 µM); MIC (Klebsiella pneumoniae [6]): 1 µg/mL (≈ 3.34 µM); MIC (Klebsiella pneumoniae [25]): 0.25 µg/mL (≈ 0.835 µM); MIC (Klebsiella pneumoniae [24]): 0.5 µg/mL (≈ 1.67 µM); MIC (Klebsiella pneumoniae [22]): 0.25 µg/mL (≈ 0.835 µM); MIC (Klebsiella pneumoniae [26]): 0.19 µg/mL (≈ 0.635 µM)
C[C@@H](O)[C@H]1C(=O)N2C(C(=O)O)=C(S[C@@H]3CN[C@H](C(=O)N(C)C)C3)[C@H](C)[C@H]12 [MEROPENEM]	1.5 (≈ 3.91 µM)	1.5 (≈ 3.91 µM)	1 (≈ 2.61 µM)	0.094 (≈ 0.245 µM)	1 (≈ 2.61 µM)	1 (≈ 2.61 µM)	1 (≈ 2.61 µM)	12 (≈ 31.3 µM)	0.75 (≈ 1.96 µM)	1.5 (≈ 3.91 µM)	12 (≈ 31.3 µM)	2 (≈ 5.22 µM)	0.064 (≈ 0.167 µM)	0.047 (≈ 0.123 µM)	4 (≈ 10.4 µM)	1 (≈ 2.61 µM)	0.064 (≈ 0.167 µM)	0.094 (≈ 0.245 µM)	1 (≈ 2.61 µM)	0.032 (≈ 0.0834 µM)	MIC (Klebsiella pneumoniae [5]): 1 µg/mL (≈ 2.61 µM); MIC (Klebsiella pneumoniae [6]): 1 µg/mL (≈ 2.61 µM); MIC (Klebsiella pneumoniae [25]): 0.064 µg/mL (≈ 0.167 µM); MIC (Klebsiella pneumoniae [24]): 1 µg/mL (≈ 2.61 µM); MIC (Klebsiella pneumoniae [22]): 0.032 µg/mL (≈ 0.0834 µM); MIC (Klebsiella pneumoniae [26]): 0.064 µg/mL (≈ 0.167 µM)
